According to the supplement of paper PMC13380429:

What was measured:
Conditions in all cases: 72 h
HepG2 [1] = test: cell viability relative to DMSO; higher = less toxic
Vero E6 [2] = test: as above
Caco-2 [3] = test: as above
Calu-3 [4] = test: as above
U2OS [5] = test: as above
HepG2 [6] = test: relative viability EC50 (midpoint between 100% and the lowest measured viability); higher = less toxic
Vero E6 [7] = test: as above
Caco-2 [8] = test: as above
Calu-3 [9] = test: as above
U2OS [10] = test: as above
HepG2 [11] = test: drug sensitivity score (DSS) for viability; higher = more toxic; extreme values may be limits of the assay
Vero E6 [12] = test: as above
Caco-2 [13] = test: as above
Calu-3 [14] = test: as above
U2OS [15] = test: as above

SMILES | cell viability (HepG2 [1]; 1 nM) [%] | cell viability (HepG2 [1]; 10 nM) [%] | cell viability (HepG2 [1]; 100 nM) [%] | cell viability (HepG2 [1]; 1000 nM) [%] | cell viability (HepG2 [1]; 10000 nM) [%] | cell viability (Vero E6 [2]; 1 nM) [%] | cell viability (Vero E6 [2]; 10 nM) [%] | cell viability (Vero E6 [2]; 100 nM) [%] | cell viability (Vero E6 [2]; 1000 nM) [%] | cell viability (Vero E6 [2]; 10000 nM) [%] | cell viability (Caco-2 [3]; 1 nM) [%] | cell viability (Caco-2 [3]; 10 nM) [%] | cell viability (Caco-2 [3]; 100 nM) [%] | cell viability (Caco-2 [3]; 1000 nM) [%] | cell viability (Caco-2 [3]; 10000 nM) [%] | cell viability (Calu-3 [4]; 1 nM) [%] | cell viability (Calu-3 [4]; 10 nM) [%] | cell viability (Calu-3 [4]; 100 nM) [%] | cell viability (Calu-3 [4]; 1000 nM) [%] | cell viability (Calu-3 [4]; 10000 nM) [%] | cell viability (U2OS [5]; 1 nM) [%] | cell viability (U2OS [5]; 10 nM) [%] | cell viability (U2OS [5]; 100 nM) [%] | cell viability (U2OS [5]; 1000 nM) [%] | cell viability (U2OS [5]; 10000 nM) [%] | relative viability EC50 (HepG2 [6]) [µM] | relative viability EC50 (Vero E6 [7]) [µM] | relative viability EC50 (Caco-2 [8]) [µM] | relative viability EC50 (Calu-3 [9]) [µM] | relative viability EC50 (U2OS [10]) [µM] | drug sensitivity score (HepG2 [11]) | drug sensitivity score (Vero E6 [12]) | drug sensitivity score (Caco-2 [13]) | drug sensitivity score (Calu-3 [14]) | drug sensitivity score (U2OS [15])
CCOC(=O)[C@@H](N)Cc1ccc(O)c(O)c1 [etilevodopa] | 86.2 | 96 | 88.1 | 99.1 | 92.5 | 101 | 89.7 | 89.7 | 98.9 | 111 | 94 | 107 | 84.2 | 85.8 | 92.8 | 103 | 95.6 | 92.2 | 88.8 | 94 | 92.6 | 95.7 | 98.3 | 96.3 | 99.3 | > 10 | > 10 | > 10 | > 10 | > 10 | 0 | 0 | 2.8 | 0.3 | 0
CC1CC(OC(=O)C(O)c2ccccc2)CC(C)(C)N1C (stereo not given) [eucatropine] | 93.5 | 88.3 | 95.3 | 90 | 93.3 | 97.8 | 102 | 98.2 | 102 | 98.8 | 99.3 | 103 | 97 | 99.2 | 92.6 | 101 | 100 | 92.5 | 95 | 107 | 104 | 104 | 97.8 | 100 | 100 | > 10 | > 10 | > 10 | > 10 | > 10 | 0 | 0 | 0 | 0 | 0
CC(=O)OCC(CCn1cnc2cnc(N)nc21)COC(C)=O [famciclovir] | 103 | 98.4 | 103 | 96.8 | 100 | 99.7 | 102 | 98.7 | 96.9 | 100 | 91.3 | 101 | 105 | 87.4 | 82.8 | 104 | 99.4 | 91.1 | 106 | 93.9 | 100 | 104 | 95 | 102 | 95.5 | > 10 | > 10 | > 10 | > 10 | > 10 | 0 | 0 | 1.4 | 0 | 0
O=c1[nH]c(=O)n([C@H]2C[C@H](O)[C@@H](CO)O2)cc1F [floxuridine] | 109 | 66.2 | 59.4 | 50 | 43.1 | 97.2 | 91.8 | 74.6 | 53.6 | 42.2 | 88.4 | 62 | 42 | 29.9 | 44.6 | 101 | 85.1 | 93.6 | 88.9 | 89 | 95.3 | 99.9 | 101 | 105 | 82.6 | 0.0144 | 0.134 | 0.0088 | > 10 | > 10 | 19 | 11.8 | 24.9 | 0.5 | 0.3
N=C(N)NC(=O)Cc1c(Cl)cccc1Cl [guanfacine] | 88.5 | 95.2 | 93.3 | 94 | 101 | 93.8 | 105 | 101 | 104 | 89.8 | 93.9 | 95.7 | 110 | 104 | 100 | 92.7 | 83.6 | 98.9 | 91.7 | 99.1 | 102 | 93.1 | 104 | 97.4 | 100 | > 10 | > 10 | > 10 | > 10 | > 10 | 0 | 0 | 0 | 0 | 0
NCCc1c[nH]cn1 [histamine] | 100 | 102 | 103 | 100 | 97.5 | 99.4 | 98.2 | 93.5 | 97.5 | 104 | 90.8 | 105 | 101 | 110 | 104 | 99.4 | 100 | 101 | 95.7 | 109 | 94.9 | 99.7 | 97.5 | 103 | 102 | > 10 | > 10 | > 10 | > 10 | > 10 | 0 | 0 | 0 | 0 | 0
